Test results from patent US11932655B1, “12-bromo-2,16-dioxapentacyclo[7.7.5.01,21.03,8.010,15]henicosa3(8),10,12,14-tetraene-7,20-dione as an antimicrobial compound” (KING FAISAL UNIVERSITY, priority 2023, dated 2024).

Assays:
Assay in all cases: Antimicrobial activity, agar dilution, exposure-time test
Assay type in all cases: cell-based
Conditions in all cases: after 10, 20, 40 and 60 minutes at all dilutions 1:100 to 1:800
[1] = test system: Candida albicans
Procedure: (§1) The antibacterial properties of the synthesized compound of 12-bromo-2,16-dioxapentacyclo[7.7.5.0^1,21.0^3,8.0^10,15]henicosa3(8),10,12,14-tetraene-7,20-dione were studied by the method of agar dilution. Test solutions of each compound was prepared in concentration of 1% using dimethylformamide as a solvent. Then they were diluted in physiological solution to obtain the final experimental dilutions of 1:100, 1:200, 1:400, and 1:800. The effect of these substances were compared with furacillin in a controllable study. The testing microbes used were gram positive bacteria Staphylococcus aureus, gram negative bacteria Pseudomonas aeruginosa, Escherichia coli, and Candida albicans fungus. The experiments used for this survey were meat-pentonlu agar (EPA) for cultivation of bacteria and Saburo environment for fungi. Each experiment used 1 mL of test solution on each plate for 500 minutes. Two drops of emulsified with microbes feel were added. All experimental samples were taken from the agar after 10, 20, 40, 60 minutes in the environment on the basis of Patrk planted. Bacteria were cultivated at a temperature of 37° C. for 1 day and the mushroom was kept in a thermostat for […] at a temperature of 28° C. Then results were checked. Those of the control and the antimicrobial activity for the synthesized compounds are listed in Table 1 below, with furacillin serving as a reference.

[2] = test system: Escherichia coli
Procedure: as §1

[3] = test system: Staphylococcus aureus
Procedure: as §1

[4] = test system: Pseudomonas aeruginosa
Procedure: as §1

Measured: inhibition activity compared with Furacilin

O=C1CCCC2=C1C1c3cc(Br)ccc3OC3(CCCC(=O)C13)O2 (stereo not shown) [12-bromo-2,16-dioxapentacyclo[7.7.5.0^1,21.0^3,8.0^10,15]henicosa3(8),10,12,14-tetraene-7,20-dione]
higher inhibition activity: all assays above
